Laboratory results: publication PMC11189555, “Aryl amino acetamides prevent Plasmodium falciparum ring development via targeting the lipid-transfer protein PfSTART1” (Nature Communications, 2024)

Target: T1, recombinant PfSTART1(N330K) (I149-V394) (Plasmodium falciparum, UniProt Q8I298, N330K)
T1 construct: 8xHis tag (N); TEV protease cleavage site (N); made in house; host or cells: Sf21 insect cells (baculovirus)
T1 sequence (Q8I298 149-394 N330K): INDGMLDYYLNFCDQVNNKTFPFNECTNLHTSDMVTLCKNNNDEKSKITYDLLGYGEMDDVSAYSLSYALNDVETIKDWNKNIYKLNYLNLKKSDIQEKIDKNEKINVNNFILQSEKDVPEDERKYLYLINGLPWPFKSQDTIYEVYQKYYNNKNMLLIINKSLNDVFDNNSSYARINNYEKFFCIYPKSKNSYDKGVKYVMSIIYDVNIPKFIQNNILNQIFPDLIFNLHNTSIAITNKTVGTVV
Experiment: Isothermal titration calorimetry
Format: binding
Conditions: for Differential Power DP_Y / ΔH NDH_Y: PfSTART(N330K), ITC replicate data
Excerpt: S. frugiperda codon optimised full-length N309K and N330K PfSTART1 mutants were first synthesised by Integrated DNA Technologies, and then I149 forward and V394 reverse primers utilised to clone the same I149-V394 construct boundaries into the modified pAcGP67a expression vector with a N-terminal GP67-signal sequence, 8xHis tag, and TEV protease cleavage site. As a result of the subcloning, SSG was removed upstream of the TEV cleavage site. Construct boundaries and incorporation of the N309K and N330K mutations was verified by Sanger sequencing. The PfSTART1 mutants were expressed and purified as per wild-type PfSTART1.
ITC experiments were performed on a MicroCal PEAQ-ITC calorimeter at 25 °C, with a stirring speed of 750 rpm and a reference power of 5 μcal/sec. 500 μM M-833 series inhibitor solutions were diluted to 10 μM in 50 mM NaPO4^-3 (pH 7.4), 150 mM NaCl with a final DMSO concentration of 2% (v/v) (cell sample). PfSTART1 protein was dialysed extensively against 50 mM NaPO4^-3 (pH 7.4), 150 mM NaCl, before diluting to 90 μM in the same buffer with 2% (v/v) DMSO (syringe sample). The first injection was 0.4 μL over a 0.8 s duration, and the remaining 19 injections were 2 μL of 4 s duration, with 150 s injection spacing. Data were collected and analysed using the PEAQ-ITC software (MicroCal) and fit by a single site binding model. A fitted offset (constant control heat) was also applied to the integrated heat.

Compound: CC(C)(Nc1ccc(Cl)c(S(=O)(=O)N2CCOCC2)c1)C(=O)Nc1ccc(F)c(Cl)c1 [W-991]
- interaction with PfSTART1(N330K) (ITC): no interaction
- Differential Power DP_Y (DP_X 0.083333): -0.001242
- Differential Power DP_Y (DP_X 0.1): -0.0011
- ΔH NDH_Y (NDH_X 0.104703): -2.588
- ΔH NDH_Y (NDH_X 0.192876): -2.749
